Data on 53 compounds can be found in patent publication US11072591B2, “Tetrazole compounds and their use in the treatment of tuberculosis” (GLAXOSMITHKLINE INTELLECTUAL PROPERTY DEVELOPMENT LIMITED, priority 2017, dated 2021).

Converted amounts (≈) assume the structure as drawn. A value given as a limit tells only on which side of the number the result lay.

The first experiment concerns M. tuberculosis H37Rv. Briefly: Mycobacterium tuberculosis H37Rv Inhibition Assay (Whole Cell Assay), MIC. It is filed as cell-based. Particulars: 144 h, M. tuberculosis H37Rv, Middlebrook 7H9 + ADC, 37° C. six days, resazurin readout, read-out: MIC_H37Rv.
Consider `Cc1nccc(Cn2nnc(-c3ccc(S(=O)(=O)NCCO)cc3)n2)n1` [Example 23], for which the MIC fell in the range of 5 to 10 µM.
For `O=S(=O)(NC(CO)CO)c1ccc(-c2nnn(Cc3ccc(F)cc3)n2)cc1` [Example 15], the MIC is 5 to 10 µM.
Still for that read-out and setting: under `N#CCNS(=O)(=O)c1ccc(-c2nnn(Cc3cnccn3)n2)cc1` [Example 90, N-(cyanomethyl)-4-(2-(pyrazin-2-ylmethyl)-2H-tetrazol-5-yl)benzenesulfonamide] stands < 0.1 µM; under `O=S(=O)(NCCO)c1ccc(-c2cn(Cc3ccc(F)cn3)nn2)cc1` [Example 62, (4-(1-((5-fluoropyridin-2-yl)methyl)-1H-1,2,3-triazol-4-yl)-N-(2-hydroxyethyl)benzenesulfonamide)], 1 to 5 µM; under `O=S(=O)(NCCO)c1ccc(-c2nnn(CC3CCOCC3)n2)cc1` [Example 105, N-(2-hydroxyethyl)-4-(2-((tetrahydro-2H-pyran-4-yl)methyl)-2H-tetrazol-5-yl)benzenesulfonamide], 1 to 5 µM.
Regarding `COc1ccc(Cn2cc(-c3ccc(S(=O)(=O)NCCO)cc3)nn2)cc1` [Example 63], the MIC was < 0.1 µM.
For `O=S(=O)(NCC(O)CO)c1ccc(-c2nnn(Cc3ccc(F)cc3)n2)cc1` (centres unmarked) [Example 17], the MIC is 5 to 10 µM.
On the same count and under the same terms, next, `Cc1cccc(Cn2nnc(-c3ccc(S(=O)(=O)NCCO)cc3)n2)n1` [Example 22]: 10 to 25 µM; `N#CCNS(=O)(=O)c1ccc(-c2nnn(Cc3ccncc3)n2)cc1` [Example 56]: < 0.1 µM; `O=S(=O)(NCCO)c1ccc(-c2nnn(Cc3ccnnc3)n2)cc1` [Example 106, N-(2-hydroxyethyl)-4-(2-(pyridazin-4-ylmethyl)-2H-tetrazol-5-yl)benzenesulfonamide]: < 0.1 µM.
`O=S(=O)(NCCO)c1ccc(-c2nnn(CC3CCCCC3)n2)cc1` [Example 100, 4-(2-(cyclohexylmethyl)-2H-tetrazol-5-yl)-N-(2-hydroxyethyl)benzenesulfonamide]: the MIC is < 0.1 µM.
For the compound `CNS(=O)(=O)c1ccc(-c2nnn(Cc3ccncc3)n2)cc1` [Example 4, N-methyl-4-(2-(pyridin-4-ylmethyl)-2H-tetrazol-5-yl)benzenesulfonamide], the MIC fell in the range of 1 to 5 µM.
For the compound `O=S(=O)(NCCO)c1ccc(-c2nnn(CC3CCCOC3)n2)cc1` (centres unmarked) [Example 104, N-(2-hydroxyethyl)-4-(2-((tetrahydro-2H-pyran-3-yl)methyl)-2H-tetrazol-5-yl)benzenesulfonamide], the MIC fell in the range of 5 to 10 µM.
On the same count and under the same terms, under `O=S(=O)(NC(CO)CO)c1ccc(-c2nnn(Cc3ccncc3)n2)cc1` [Example 16] stands 5 to 10 µM; under `O=S(=O)(NCCO)c1ccc(-c2nnn(CC3CCCCO3)n2)cc1` (racemic) [Example 7, N-(2-hydroxyethyl)-4-(2-((tetrahydro-2H-pyran-2-yl)methyl)-2H-tetrazol-5-yl)benzenesulfonamide], < 0.1 µM.
With `O=S(=O)(NCCO)c1ccc(-c2nnn(CC3CCCCC3)n2)cc1F` [Example 79, 4-(2-(cyclohexylmethyl)-2H-tetrazol-5-yl)-2-fluoro-N-(2-hydroxyethyl)benzenesulfonamide], the MIC was < 0.1 µM.
With `NC(=O)CNS(=O)(=O)c1ccc(-c2nnn(CC3CCCCO3)n2)cc1` (centres unmarked) [Example 96, 2-((4-(2-((tetrahydro-2H-pyran-2-yl)methyl)-2H-tetrazol-5-yl)phenyl)sulfonamido)acetamide], the MIC is < 0.1 µM.
On to `NC(=O)CNS(=O)(=O)c1ccc(-c2nnn(Cc3ccc(F)cn3)n2)cc1` [Example 38], for which the MIC was < 0.1 µM.
For the compound `CNS(=O)(=O)c1ccc(-c2nnn(Cc3ccc(F)cc3)n2)cc1` [Example 3, 4-(2-(4-fluorobenzyl)-2H-tetrazol-5-yl)-N-methylbenzenesulfonamide], the MIC lay in the range of 1 to 5 µM.
For the compound `COc1ccc(Cn2nnc(-c3ccc(S(=O)(=O)NCC#N)cc3)n2)cn1` [Example 93, N-(cyanomethyl)-4-(2-((6-methoxypyridin-3-yl)methyl)-2H-tetrazol-5-yl)benzenesulfonamide], the MIC was < 0.1 µM.
Still for that read-out and setting: under `N#CCNS(=O)(=O)c1ccc(-c2cn(Cc3ccc(F)cn3)nn2)cc1` [Example 61] stands < 0.1 µM.
Take `O=S(=O)(NCCO)c1ccc(-c2cn(Cc3ccncc3)nn2)cc1` [Example 65]: the MIC is < 0.1 µM.
Consider `CNS(=O)(=O)c1ccc(-c2nnn(Cc3ccc(C#N)cc3)n2)cc1` [Example 108, 4-(2-(4-cyanobenzyl)-2H-tetrazol-5-yl)-N-methylbenzenesulfonamide], for which the MIC was 1 to 5 µM.
Still for that read-out and setting: under `COc1ccc(Cn2nnc(-c3ccc(S(=O)(=O)NCCO)cc3)n2)nc1` [Example 31] stands 1 to 5 µM; under `N#Cc1ccc(Cn2cc(-c3ccc(S(=O)(=O)NCCO)cc3)nn2)cc1` [Example 66], < 0.1 µM; under `Cc1cnc(Cn2nnc(-c3ccc(S(=O)(=O)NCC#N)cc3)n2)cn1` [Example 91, N-(cyanomethyl)-4-(2-((5-methylpyrazin-2-yl)methyl)-2H-tetrazol-5-yl)benzenesulfonamide], < 0.1 µM.
As for `N#CCNS(=O)(=O)c1ccc(-c2nnn(Cc3ccncn3)n2)cc1` [Example 58], the MIC was < 0.1 µM.
Turning to `C[C@@H](O)CNS(=O)(=O)c1ccc(-c2nnn(Cc3ccc(F)cc3)n2)cc1` [Example 24], the MIC was < 0.1 µM.
In the case of `Cc1cc(S(=O)(=O)NCCO)c(F)cc1-c1nnn(Cc2ccc(F)cn2)n1` [Example 110, 2-fluoro-4-(2-((5-fluoropyridin-2-yl)methyl)-2H-tetrazol-5-yl)-N-(2-hydroxyethyl)-5-methylbenzenesulfonamide], the MIC is < 0.1 µM.
For the compound `COc1ccc(Cn2nnc(-c3ccc(S(=O)(=O)NCCO)cc3)n2)cc1` [Example 6, N-(2-hydroxyethyl)-4-(2-(4-methoxybenzyl)-2H-tetrazol-5-yl)benzenesulfonamide], the MIC was < 0.1 µM.
With `COc1cc(-c2nnn(Cc3ccncc3)n2)ccc1S(=O)(=O)NCC(N)=O` [Example 55], the MIC is < 0.1 µM.
Turning to `C[C@@H](O)CNS(=O)(=O)c1ccc(-c2nnn(Cc3ccncc3)n2)cc1` [Example 12], the MIC was < 0.1 µM.
As to `NC(=O)CNS(=O)(=O)c1ccc(-c2cn(CC3CCC(F)(F)CC3)nn2)cc1` [Example 69], the MIC was in the range of 1 to 5 µM.
`Cc1ccc(Cn2nnc(-c3ccc(S(=O)(=O)NC[C@@H](C)O)cc3)n2)nc1` [Example 27]: the MIC fell in the range of 10 to 25 µM.
`COc1cc(-c2nnn(Cc3ccc(C#N)cc3)n2)ccc1S(=O)(=O)NCCO` [Example 49, 4-(2-(4-cyanobenzyl)-2H-tetrazol-5-yl)-N-(2-hydroxyethyl)-2-methoxybenzenesulfonamide]: the MIC was < 0.1 µM.
Turning to `O=S(=O)(NCCO)c1ccc(-c2nnn(Cc3ccc(C(F)(F)F)cc3)n2)cc1` [Example 98], the MIC lay within 5 to 10 µM.
Regarding `Cc1cc(-c2nnn(Cc3ccc(F)cn3)n2)ccc1S(=O)(=O)NCCO` [Example 71, 4-(2-((5-fluoropyridin-2-yl)methyl)-2H-tetrazol-5-yl)-N-(2-hydroxyethyl)-2-methyl Benzenesulfonamide], the MIC was < 0.1 µM.
Take `COc1ccc(Cn2nnc(-c3ccc(S(=O)(=O)NC[C@@H](C)O)cc3)n2)nc1` [Example 26]: the MIC lay within 10 to 25 µM.
Turning to `C[C@@H](O)CNS(=O)(=O)c1ccc(-c2nnn(CC3CCC(F)(F)CC3)n2)cc1` [Example 13], the MIC lay within 10 to 25 µM.
On the same count and under the same terms, under `COc1ccc(Cn2nnc(-c3ccc(S(=O)(=O)NC[C@@H](C)O)cc3)n2)cc1` [Example 28] stands 1 to 5 µM.
With `Cc1ccc(Cn2cc(-c3ccc(S(=O)(=O)NCCO)cc3)nn2)nc1` [Example 67], the MIC lay within 10 to 25 µM.
Take `Cc1cc(Cn2nnc(-c3ccc(S(=O)(=O)NCCO)cc3)n2)ccn1` [Example 34]: the MIC is 1 to 5 µM.
Same read-out and setting: under `CCNS(=O)(=O)c1ccc(-c2nnn(Cc3ccncc3)n2)cc1` [Example 5, N-ethyl-4-(2-(pyridin-4-ylmethyl)-2H-tetrazol-5-yl)benzenesulfonamide] stands 10 to 25 µM.
Still for that read-out and setting: under `COC(=O)CNS(=O)(=O)c1ccc(-c2nnn(Cc3ccc(F)cc3)n2)cc1` [Example 43] stands 1 to 5 µM; under `O=S(=O)(NCCO)c1ccc(-c2nnn(Cc3ccc(Cl)cn3)n2)cc1` [Example 18, 4-(2-((5-chloropyridin-2-yl)methyl)-2H-tetrazol-5-yl)-N-(2-hydroxyethyl)benzenesulfonamide], < 0.1 µM; under `O=S(=O)(NCCO)c1ccc(-c2nnn(CC3CCOCC3)n2)cc1F` [Example 78, 2-fluoro-N-(2-hydroxyethyl)-4-(2-((tetrahydro-2H-pyran-4-yl)methyl)-2H-tetrazol-5-yl)benzenesulfonamide], < 0.1 µM.
Regarding `CCOc1ccc(Cn2nnc(-c3ccc(S(=O)(=O)NCCO)cc3)n2)cc1` [Example 99], the MIC was < 0.1 µM.
In the case of `N#Cc1ccc(Cn2nnc(-c3ccc(S(=O)(=O)NCCO)cc3)n2)nc1` [Example 20], the MIC was < 0.1 µM.
As to `N#CCNS(=O)(=O)c1ccc(-c2nnn(CC3CCOCC3)n2)cc1` [Example 89, N-(cyanomethyl)-4-(2-((tetrahydro-2H-pyran-4-yl)methyl)-2H-tetrazol-5-yl)benzenesulfonamide], the MIC was < 0.1 µM.
Regarding `O=S(=O)(NCCO)c1ccc(-c2nnn(Cc3cccnc3)n2)cc1` [Example 102, N-(2-hydroxyethyl)-4-(2-(pyridin-3-ylmethyl)-2H-tetrazol-5-yl)benzenesulfonamide], the MIC was < 0.1 µM.
Consider `Cc1cc(Cn2nnc(-c3ccc(S(=O)(=O)NCC(N)=O)cc3)n2)ccn1` [Example 42], for which the MIC was < 0.1 µM.

Still in this experiment, the particulars now being: M. tuberculosis H37Rv whole cell assay, value from repeated testing of the compound, read-out: MIC.
Consider `COc1cc(-c2nnn(C(C)c3ccc(F)cc3)n2)ccc1S(=O)(=O)NCC(N)=O` (single isomer, unassigned) [Example 115 Isomer 2, 2-(4-(2-(1-(4-fluorophenyl)ethyl)-2H-tetrazol-5-yl)-2-methoxyphenylsulfonamido)acetamide], for which the MIC was 0.45 to 1.25 µM (≈ 0.196 to 0.543 µg/mL).
Same read-out and setting: under `O=S(=O)(NCCO)c1c(F)cc(-c2nnn(Cc3ccc(F)cn3)n2)cc1F` [Example 87, 2,6-difluoro-4-(2-((5-fluoropyridin-2-yl)methyl)-2H-tetrazol-5-yl)-N-(2-hydroxyethyl)benzenesulfonamide] stands ≤ 0.04 µM.
